This is an account of results in PMC3536056 (Journal of immunology (Baltimore, Md. : 1950), 2012).

The subject of one assay is naïve TCR-V T cells. Put plainly: In vivo proliferation of CFSE-labeled naïve TCR-V cells. On the set-up: species or system B6 mice. The settings on record: peptide s.c. 100 μg in IFA, or rVV i.v. 10^7 PFU; 3 days.
Assay [1] has as its system polyclonal site V-specific T cells. Put plainly: Intracellular IFN-γ, peptide-stimulated polyclonal site V-specific T cells. Format: cell-based, mice. The settings on record: 10^−7–10^−12 M peptide; versus wild type site V.
Another assay concerns the target T1, H-2D^b (Mus musculus, UniProt P01899).
T1 sequence (P01899 25-362): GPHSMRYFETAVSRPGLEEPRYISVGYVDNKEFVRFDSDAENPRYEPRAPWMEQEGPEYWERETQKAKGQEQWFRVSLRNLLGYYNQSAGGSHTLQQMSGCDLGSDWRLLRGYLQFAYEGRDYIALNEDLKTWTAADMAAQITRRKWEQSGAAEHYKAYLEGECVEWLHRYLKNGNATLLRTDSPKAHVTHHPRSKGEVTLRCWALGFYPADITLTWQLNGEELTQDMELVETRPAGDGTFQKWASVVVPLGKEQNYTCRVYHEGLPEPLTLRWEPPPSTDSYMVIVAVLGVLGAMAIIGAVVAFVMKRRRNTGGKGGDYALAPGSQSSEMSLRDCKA
T1 sequence (P01887 21-119 partner): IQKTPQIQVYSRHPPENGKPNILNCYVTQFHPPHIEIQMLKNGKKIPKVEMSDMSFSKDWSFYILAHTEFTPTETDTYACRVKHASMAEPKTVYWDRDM
Description: Stability. In kind it is binding. The settings on record: for half-life of peptide/H-2D^b complexes: RMA/s cells loaded overnight at 29 °C, washed, decay at 37 °C, flow cytometry; for pMHC stability (in words): versus wild type site V peptide, RMA/s decay at 37 °C. Background: Flow cytometry measures light scatter and fluorescence of single cells or particles in a stream.

The next assay deals with TCR-V T cells. Format: cell-based, mice. To be noted: for functional avidity for TCR-V T cells (in words): 10^−7–10^−12 M peptide, versus wild type site V.
The test system of the next assay is D^b. To be noted: Flu determinants; cited from earlier work.
The target of assay [2] is H-2D^b (mouse (endogenous in RMA/s)). Description: flow cytometry on cells.

Entries after “also recorded” stand apart in the source; their conditions may differ.

For AGINNLDNL [Q489A], the “TCR-V division on bypassing cross-presentation (in words)” value with naïve TCR-V T cells is given as “almost all of the TCR-V cells underwent division”. For the same substance, in assay [1], the “functional avidity for polyclonal site V-specific T cells (in words)” value is on record as “not increased”. Moreover, at H-2D^b, the “half-life of peptide/H-2D^b complexes” value was “approximately 4 hours” and the “pMHC stability (in words)” value is “formed more stable pMHC than the wild type site V peptide; also recorded: most dramatic increase in pMHC stability”. Besides, the “functional avidity for TCR-V T cells (in words)” value with TCR-V T cells is “not increased”.
Consider ASNENMETM [NP366–374], for which the “estimated half-life of D^b pMHC” value with D^b was ~ 4 hours.
Consider “PA224–233: dominant D^b-Flu determinant (SSLENFRAYV; UniProt P03433 224-233, looked up, fragment)”, for which the “estimated half-life of D^b pMHC” value in the assay with D^b is around 16 hours.
As for QAINNLDNL [G490A], the “functional avidity for polyclonal site V-specific T cells (in words)” value in assay [1] is recorded as “not increased”. In addition, at H-2D^b, the “half-life of peptide/H-2D^b complexes” value is around 2.75 h and the “pMHC stability (in words)” value was “formed more stable pMHC than the wild type site V peptide; also recorded: moderately increased stability compared to wt site V; also recorded: modest increase in pMHC stability”. Moreover, in the assay on TCR-V T cells, the “reduction of functional avidity for TCR-V T cells” value was “five” and the “functional avidity for TCR-V T cells (in words)” value is reported as “not increased”.
Turning to SAINNYAQKL [site I, reference compound], on H-2D^b, the “half-life of peptide/H-2D^b complexes” value is given as “greater than 4 hours” and the “pMHC stability (in words)” value is “most stable”.
In assay [2], SV40 TAg site I peptide (…) registered a half-life of the pMHC complex above 4 hours.
On the same count and under the same terms, with SV40 TAg site V peptide (…) the figure was 2 hours; with site V variant peptide G490A (…), 2.75 hours.
In assay [2], site V variant peptide Q489A (…) came in with a fold increase of relative affinity against wild type site V of 4 fold and a half-life of the pMHC complex of 4 hours.
